Data as given in US9449726B2, “100Mo compounds as accelerator targets for production of 99mTc” (Washington University, priority 2013, dated 2016).
Entries after “also recorded” stand apart in the source; their conditions may differ.

Test system: normal CD1 mice
Assay: SPECT/CT imaging of ^99mTc-MDP in small animals
Assay type: in vivo
Protocol: Preparation of ^99mTc-methylene diphosphonate (^99mTc-MDP) and Animal Imaging Studies. All animal studies were approved by the Animal Studies Committee at Washington University. ^99mTc-MDP was prepared using commercially available kits. 3.9 mg of a sterile lyophilized powder containing methylene diphosphonate as the main constituent, under the trade name MDP-BRACCO™ (Bracco Diagnostics Inc., Princeton, N.J.) was dissolved in 135 μL saline solution. From this solution 10 μL was pipetted and added to the 400 μL of 1.6×10^8Bq (4.3 mCi)^99mTcO4^− containing saline solution. Radio-ITLC was performed on this solution as described above. 100 μL of the prepared radiopharmaceutical with an activity of 2.0×10^7 Bq (0.55 mCi) was injected into one month old normal CD1 mice via tail vein followed by small animal SPECT/CT imaging (nanoSPECT, Bioscan, Washington D.C.). CT scans were performed using a tube voltage of 45 kV and a scan time of 1.5 seconds per projection while the animals were anesthetized by isofluorane. SPECT data were collected by monitoring in as helical scan at 45 projections and 60 seconds per projection using a 9-pinhole low energy collimator. SPECT images were collected for 45 minutes at 1.5, 3 and 4 hours post injection. The CT and SPECT images were reconstructed and colocalized using InVivoScope (inviCRO, LLC, Boston Mass.) and HiSPECT (Bioscan, Washington, D.C.).
In these experiments, activities of 2.0×10^7Bq of ^99mTc were injected into each mouse. Scan times of 45 minutes were employed in imaging while each mouse was anesthetized with isoflurane. FIG. 5 illustrates SPECT images of mice imaged at (a) 1.5 hours (b) 3 hours and (c) 4 hours post injection.

For `O.O.O=P([O-])([O-])CP(=O)([O-])[O-].[99Tc+4]` [^99mTc-MDP, ^99mTc-methylene diphosphonate], the “SPECT images: uniformity of uptake in the backbone” value (CD1 mice, tail vein) was “relatively uniform”, the “SPECT images: activity at the earliest time point” value (CD1 mice, tail vein, 1.5 hours post injection (FIG. 5A)) was “activity in the kidneys and bladder as expected; also recorded: activity was seen in the excretory organs as shown in FIG. 5A, namely the kidneys and bladder” and the “SPECT images: change of activity as time progressed” value (CD1 mice, tail vein, 3 hours and 4 hours post injection (FIGS. 5B and 5C)) was “clearance of radioactivity from these organs and increased accumulation in the bones and joints”. The “SPECT images: regional uptake in the skeleton” value (CD1 mice, tail vein, backbone and joints) was “high activity uptake in the cervical, thoracic and lumbar regions of the backbone and major joints” and the “SPECT images: tissue uptake of ^99mTc” value (one month old normal CD1 mice, tail vein injection, 2.0×10^7 Bq (0.55 mCi), imaged 1.5, 3 and 4 hours post injection) was “accumulation of ^99mTc in the bones and joints; also recorded: uptake of the ^99mTc in the bones as expected”.
